Eight molecules from patent US20240360113A1, “AMINOARYL-INTEGRIN AGONISTS COMPOUNDS” (Texas Heart Institute, priority 2021, published 2024) can be followed below.

The target of one assay is T1, αLβ2/ICAM-1 (Homo sapiens, UniProt P05107+P20701).
T1 construct: The Jurkat (VCAM-1 assays) and HSB (ICAM-1 assays) cell lines were obtained from American Type Culture Collection; endogenous in cells; host or cells: HSB (ATCC)
Briefly: Static cell adhesion assay, HSB cells on ICAM-1 (LFA-1; LAD). As to conditions: RFU of compound / RFU of THI0349, both at the same concentration. It counts as cell-based. The gist of the method: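 HSB cells were labeled with calcein-AM for 30 minutes, washed, resuspended in binding buffer (PBS with 2 mM MgCl2, 5 mM EGTA, 50% FBS) and plated at 2×10^5 cells/well in triplicate onto 96-well plates coated overnight at 4° C with ICAM-1 (5 μg/mL in 50 μL TBS) and blocked with 2% BSA. Compounds were tested in 1% DMSO. After 30 minutes at 37° C and three washes, adherent cells were lysed and fluorescence was read; results are compound RFU divided by THI0349 RFU.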

Another assay deals with T2, α4β1/VCAM-1 (Homo sapiens, UniProt P05556+P13612).
T2 construct: The Jurkat (VCAM-1 assays) and HSB (ICAM-1 assays) cell lines were obtained from American Type Culture Collection; endogenous in cells; host or cells: Jurkat (ATCC)
T2 sequence (P13612 34-1032): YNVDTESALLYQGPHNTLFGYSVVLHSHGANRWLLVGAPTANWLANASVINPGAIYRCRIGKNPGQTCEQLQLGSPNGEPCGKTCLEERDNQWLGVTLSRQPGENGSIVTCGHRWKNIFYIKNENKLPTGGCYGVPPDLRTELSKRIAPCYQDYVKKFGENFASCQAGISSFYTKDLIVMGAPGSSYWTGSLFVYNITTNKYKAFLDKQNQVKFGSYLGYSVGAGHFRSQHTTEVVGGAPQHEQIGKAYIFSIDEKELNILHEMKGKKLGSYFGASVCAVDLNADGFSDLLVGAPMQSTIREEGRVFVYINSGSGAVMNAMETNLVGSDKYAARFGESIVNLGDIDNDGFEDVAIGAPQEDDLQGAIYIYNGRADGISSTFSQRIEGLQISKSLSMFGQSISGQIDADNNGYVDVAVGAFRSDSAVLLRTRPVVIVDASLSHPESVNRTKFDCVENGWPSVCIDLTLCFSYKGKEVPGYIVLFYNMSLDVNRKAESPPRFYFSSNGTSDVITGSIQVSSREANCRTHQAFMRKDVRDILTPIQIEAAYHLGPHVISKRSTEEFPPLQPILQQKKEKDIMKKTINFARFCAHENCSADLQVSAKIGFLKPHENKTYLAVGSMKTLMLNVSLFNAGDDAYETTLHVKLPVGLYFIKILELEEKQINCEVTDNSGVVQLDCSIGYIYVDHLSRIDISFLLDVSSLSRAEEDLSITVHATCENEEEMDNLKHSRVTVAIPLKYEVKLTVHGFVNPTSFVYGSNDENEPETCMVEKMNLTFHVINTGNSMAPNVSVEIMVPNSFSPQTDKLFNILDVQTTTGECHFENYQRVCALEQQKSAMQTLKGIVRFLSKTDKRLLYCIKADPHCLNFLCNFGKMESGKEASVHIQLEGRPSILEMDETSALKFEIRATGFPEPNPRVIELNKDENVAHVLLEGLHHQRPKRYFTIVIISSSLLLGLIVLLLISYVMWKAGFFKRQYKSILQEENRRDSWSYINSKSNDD
T2 sequence (P05556 21-798): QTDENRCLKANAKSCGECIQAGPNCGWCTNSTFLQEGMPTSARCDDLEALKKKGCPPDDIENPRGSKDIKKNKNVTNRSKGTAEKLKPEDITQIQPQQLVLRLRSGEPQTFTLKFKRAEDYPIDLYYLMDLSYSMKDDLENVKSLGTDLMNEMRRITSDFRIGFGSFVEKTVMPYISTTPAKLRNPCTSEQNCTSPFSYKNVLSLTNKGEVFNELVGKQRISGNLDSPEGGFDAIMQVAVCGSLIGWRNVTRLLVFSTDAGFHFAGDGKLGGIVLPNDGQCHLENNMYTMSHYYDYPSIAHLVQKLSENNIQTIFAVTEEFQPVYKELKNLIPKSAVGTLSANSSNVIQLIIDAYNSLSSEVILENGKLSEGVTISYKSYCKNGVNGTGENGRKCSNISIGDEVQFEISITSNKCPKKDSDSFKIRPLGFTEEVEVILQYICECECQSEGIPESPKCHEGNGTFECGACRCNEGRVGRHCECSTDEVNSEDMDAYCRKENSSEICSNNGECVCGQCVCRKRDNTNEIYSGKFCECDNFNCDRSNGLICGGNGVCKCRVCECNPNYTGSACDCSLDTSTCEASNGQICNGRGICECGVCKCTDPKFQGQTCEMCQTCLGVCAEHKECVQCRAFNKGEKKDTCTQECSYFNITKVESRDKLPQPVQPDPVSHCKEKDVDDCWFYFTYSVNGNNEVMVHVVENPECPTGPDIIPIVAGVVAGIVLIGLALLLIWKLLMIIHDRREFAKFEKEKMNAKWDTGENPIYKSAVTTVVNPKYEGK
Nature of the assay: Static cell adhesion assay, Jurkat cells on VCAM-1 (VLA-4 agonist activity). To be noted: EC50 relative to THI0349 (average 11 uM) run on the same plate; Jurkat cells, 50% FBS. It counts as cell-based. Summed up:
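Calcein-labelled Jurkat cells (2×10^5/well) were added to wells coated with a sub-optimal level of human VCAM-1 (0.5 μg/mL) in PBS, 1 mM MgCl2, 50% FBS with compound in 1% DMSO. After 30 min at 37° C. and washing, adherent-cell fluorescence was read. EC50 was the concentration giving 50% of maximal response.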

T1 sequence (P20701 26-1170): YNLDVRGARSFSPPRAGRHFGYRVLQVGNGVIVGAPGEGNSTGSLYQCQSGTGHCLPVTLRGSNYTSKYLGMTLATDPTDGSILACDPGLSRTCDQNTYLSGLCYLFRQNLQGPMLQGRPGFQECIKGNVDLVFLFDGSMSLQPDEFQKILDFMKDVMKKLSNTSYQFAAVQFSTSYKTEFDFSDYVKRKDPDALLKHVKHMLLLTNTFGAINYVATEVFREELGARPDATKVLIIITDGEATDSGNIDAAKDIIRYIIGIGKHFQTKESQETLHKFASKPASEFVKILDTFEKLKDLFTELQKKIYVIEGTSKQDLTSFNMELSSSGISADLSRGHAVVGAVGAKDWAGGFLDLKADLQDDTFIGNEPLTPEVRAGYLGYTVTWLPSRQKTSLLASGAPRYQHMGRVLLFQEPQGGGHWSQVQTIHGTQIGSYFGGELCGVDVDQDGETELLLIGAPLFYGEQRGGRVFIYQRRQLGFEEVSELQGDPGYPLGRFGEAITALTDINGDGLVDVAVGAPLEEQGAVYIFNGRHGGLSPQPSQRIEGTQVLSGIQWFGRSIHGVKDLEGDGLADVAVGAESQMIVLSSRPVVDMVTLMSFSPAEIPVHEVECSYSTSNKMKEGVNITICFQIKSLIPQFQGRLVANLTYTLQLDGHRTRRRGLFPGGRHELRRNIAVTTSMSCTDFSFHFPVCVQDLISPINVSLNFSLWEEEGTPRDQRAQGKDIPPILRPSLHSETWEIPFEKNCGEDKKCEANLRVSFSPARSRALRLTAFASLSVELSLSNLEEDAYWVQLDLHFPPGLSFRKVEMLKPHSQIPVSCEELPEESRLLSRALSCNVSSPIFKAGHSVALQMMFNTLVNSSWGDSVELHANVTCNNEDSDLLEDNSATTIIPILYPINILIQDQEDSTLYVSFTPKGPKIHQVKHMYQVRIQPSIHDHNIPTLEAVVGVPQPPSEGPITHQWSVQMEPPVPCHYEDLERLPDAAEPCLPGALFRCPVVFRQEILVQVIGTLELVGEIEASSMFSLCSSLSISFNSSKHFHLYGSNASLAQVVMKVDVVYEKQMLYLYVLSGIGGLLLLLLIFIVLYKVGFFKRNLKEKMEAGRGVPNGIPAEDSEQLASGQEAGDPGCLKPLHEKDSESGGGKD
T1 sequence (P05107 23-769): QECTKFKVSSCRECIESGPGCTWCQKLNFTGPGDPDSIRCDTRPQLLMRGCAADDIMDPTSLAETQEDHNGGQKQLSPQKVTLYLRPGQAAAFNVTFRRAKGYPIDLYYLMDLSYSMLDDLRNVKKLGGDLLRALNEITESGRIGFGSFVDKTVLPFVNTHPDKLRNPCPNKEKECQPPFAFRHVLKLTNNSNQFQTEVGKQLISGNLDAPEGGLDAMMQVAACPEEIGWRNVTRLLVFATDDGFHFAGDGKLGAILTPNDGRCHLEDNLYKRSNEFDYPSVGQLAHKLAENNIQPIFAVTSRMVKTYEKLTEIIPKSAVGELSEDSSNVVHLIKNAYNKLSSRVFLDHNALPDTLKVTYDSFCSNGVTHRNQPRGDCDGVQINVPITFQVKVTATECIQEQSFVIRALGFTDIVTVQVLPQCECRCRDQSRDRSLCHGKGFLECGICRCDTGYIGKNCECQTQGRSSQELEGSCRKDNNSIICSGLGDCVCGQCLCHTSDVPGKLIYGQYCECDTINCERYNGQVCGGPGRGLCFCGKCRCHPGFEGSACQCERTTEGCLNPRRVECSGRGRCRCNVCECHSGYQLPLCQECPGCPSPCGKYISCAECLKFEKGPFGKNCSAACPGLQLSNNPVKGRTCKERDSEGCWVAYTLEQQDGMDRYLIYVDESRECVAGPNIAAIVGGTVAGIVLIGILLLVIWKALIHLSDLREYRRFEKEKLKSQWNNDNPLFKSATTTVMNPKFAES

In the case of `COc1cccc(CN(Cc2cccc(OC)c2)c2nc(CCN3CCOCC3)cs2)c1` [Compound 84, N,N-bis(3-methoxybenzyl)-4-(2-morpholinoethyl)thiazol-2-amine], the “LAD Raw Fluorescence Units against LFA-1; Dose 3 µM; Ratio of raw counts Compound/THI0349” value at αLβ2/ICAM-1 is 0.14. The “Group against VCAM” value on α4β1/VCAM-1 was “I (Group I maintains at least the same potency or better up to more than twice that of the EC50 of THI0349 ran on the same plate)”.

Regarding `COc1cccc(CN(Cc2cccc(OC)c2)c2nc(CN3CCN(C)CC3)cs2)c1` [Compound 69, N,N-bis(3-methoxybenzyl)-4-((4-methylpiperazin-1-yl)methyl)thiazol-2-amine], the “LAD Raw Fluorescence Units against LFA-1; Dose 3 µM; Ratio of raw counts Compound/THI0349” value on αLβ2/ICAM-1 came out at 0.33. Further, the “Group against VCAM” value at α4β1/VCAM-1 is “II (Group II is more than twice that of THI0349 but less than five times THI0349's EC50)”.

With `COc1cccc(CN(Cc2cccc(OC)c2)c2nc(COCCOCc3ccccc3)cs2)c1` [Compound 58, 4-((2-(benzyloxy)ethoxy)methyl)-N,N-bis(3-methoxybenzyl)thiazol-2-amine], the “LAD Raw Fluorescence Units against LFA-1; Dose 3 µM; Ratio of raw counts Compound/THI0349” value on αLβ2/ICAM-1 is 0.48. Further, the “Group against VCAM” value on α4β1/VCAM-1 is “I (Group I maintains at least the same potency or better up to more than twice that of the EC50 of THI0349 ran on the same plate)”.

Turning to `COc1cccc(CN(Cc2cccc(OC)c2)c2nc(COCCOCCOc3cccc(OC)c3)cs2)c1` [Compound 42, N,N-bis(3-methoxybenzyl)-4-((2-(2-(3-methoxyphenoxy)ethoxy)ethoxy)methyl)thiazol-2-amine], on αLβ2/ICAM-1, the “LAD Raw Fluorescence Units against LFA-1; Dose 3 µM; Ratio of raw counts Compound/THI0349” value stood at 1.6. In addition, the “Group against VCAM” value on α4β1/VCAM-1 was “I (Group I maintains at least the same potency or better up to more than twice that of the EC50 of THI0349 ran on the same plate)”.

Consider `CCOC(=O)c1coc(N(Cc2cccc(OC)c2)Cc2cccc(OC)c2)n1` [Compound 14, ethyl 2-(bis(3-methoxybenzyl)amino)oxazole-4-carboxylate], for which the “LAD Raw Fluorescence Units against LFA-1; Dose 3 µM; Ratio of raw counts Compound/THI0349” value on αLβ2/ICAM-1 is listed as 1.0. Also, on α4β1/VCAM-1, the “Group against VCAM” value is “I (Group I maintains at least the same potency or better up to more than twice that of the EC50 of THI0349 ran on the same plate)”.

In the case of `CCOC(=O)c1ccc(N(Cc2cccc(OC)c2)Cc2cccc(OC)c2)cc1` [Compound 85, ethyl 4-(bis(3-methoxybenzyl)amino)benzoate], the “LAD Raw Fluorescence Units against LFA-1; Dose 3 µM; Ratio of raw counts Compound/THI0349” value on αLβ2/ICAM-1 is recorded as 0.03. At α4β1/VCAM-1, the “Group against VCAM” value is listed as “III (Group III more than five times the EC50 of THI0349)”.

As to `COc1cccc(CN(Cc2cccc(OC)c2)c2nc(COCCOCCOCc3ccccc3)cs2)c1` [Compound 53, 4-((2-(2-(benzyloxy)ethoxy)ethoxy)methyl)-N,N-bis(3-methoxybenzyl)thiazol-2-amine], the “LAD Raw Fluorescence Units against LFA-1; Dose 3 µM; Ratio of raw counts Compound/THI0349” value on αLβ2/ICAM-1 was determined as 1.06. Besides, the “Group against VCAM” value on α4β1/VCAM-1 is “I (Group I maintains at least the same potency or better up to more than twice that of the EC50 of THI0349 ran on the same plate)”.

With `CCOC(=O)c1ccc(N(Cc2cccc(OC)c2)Cc2cccc(OC)c2)nc1` [Compound 95, ethyl 6-(bis(3-methoxybenzyl)amino)nicotinate], on αLβ2/ICAM-1, the “LAD Raw Fluorescence Units against LFA-1; Dose 3 µM; Ratio of raw counts Compound/THI0349” value came out at 0.09. In addition, the “Group against VCAM” value on α4β1/VCAM-1 is “III (Group III more than five times the EC50 of THI0349)”.
